Results filed as inconclusive are left out.
Test system: DRD oncogenic fibroblast viability, ATP luminescence
Assay: DRD fibroblast viability loss – cell-based, non-viral oncogenic, luminescence, dose response (AID 1934)

SMILES: C=C(C=O)CC1CC(O)[C@]2(C)OC3CC4OC5C[C@]6(C)O[C@]7(C)CCC8OC9C[C@]%10(C)OC%11C(C)=CC(=O)OC%11CC%10OC9C[C@@H](C)C8OC7CC6O[C@]5(C)CC5OC5C4OC3CC2O1 (stereo partly specified)
- EC50: 824 nM
